Source: patent US20230212129A1, “QUINAZOLINE DERIVATIVES USEFUL AS SELECTIVE HDAC6 INHIBITORS” (AnnJi Pharmaceutical Co., Ltd., priority 2020, published 2023)

Key:
[1] = test system: Rat DRG cells; test: Cisplatin-induced neurite degeneration in DRG cells; format: cell-based; conditions: 0.3 μM with 0.5 mM cisplatin, 48 hours; p<0.05; FIG. 3
Method: Rat DRG cells were used to investigate the protective effect of HDAC6 inhibitors. DRG cells were treated with 0.5 mM of cisplatin with or without 0.3 μM of COMPOUND 2 or ACY1215 for 48 hours. The neurite area and the number of blebs (cell apoptosis) per image were calculated and their ratio values among the tested groups were compared and shown in FIG. 3.

[2] = test system: cisplatin-induced neuropathy; test: Cisplatin-induced neuropathy, von Frey paw-withdrawal murine model; format: in vivo, Balb/c mice; conditions: oral once daily Day 16 to 29 (pregabalin 15 mg/kg one hour prior to test); vs cisplatin control; FIG. 4
Method: To understand whether COMPOUND 2 exerts neuron protective activities in cisplatin-induced neuropathy, a paw-withdrawal murine model is deployed. The 50% paw withdrawal threshold (PWT) to a static mechanical stimulus was assessed using von Frey filament and up-and-down method following the procedure described by Chaplan (1994). Mechanical allodynia, a painful sensation caused by innocuous stimuli like light touch, was assessed by the manual von Frey test once per week (on day 7, 14, 21, 28, […], and 42). The animals indicated sensation by pulling back its paw. The minimum force leading to withdrawal of the paw was regarded as the reflex threshold.
Balb/c mice weighing about 25±2 gram were given cisplatin intraperitoneally at the dose of 1.5 mg/kg for 5 consecutive days (cumulative dose of 7.5 mg/kg), followed by 5 days of recovery. The cisplatin administration cycle was repeated once more to reach a cumulative dose of 15 mg/kg to induce neuropathy. Test compounds, COMPOUND 2 and ACY1215, were orally administered once daily for 2 weeks (except for the weekends) from Day 16 to 29. Pregabalin, a drug known to provide transient pain relief, was administered at a dose of 15 mg/kg prior to each von Frey stimulus test to serve as the positive control.

[3] = test system: acetylated α-tubulin (Ac-α-tub); test: Western blot of acetylated α-tubulin in primary DRG cells; format: cell-based, C57BL/6J mice; conditions: 48 hours of treatment, FIG. 2
Method: (§1) To investigate the effect of HDAC6 inhibitors in neuron protection and neuron regeneration, the recovery of dorsal root ganglion (DRG) cells post-paclitaxel injury was tested. Dorsal root ganglion was extracted from 7 week-old female C57BL/6J mice and incubated with HDAC6 inhibitors (compounds COMPOUND 33, COMPOUND 34, or COMPOUND 2) at the concentrations of 0.1 μM and 1 μM, or 100 ng/ml of BDNF, a neuronal growth factor (positive control), for 24 hours prior to a 24-hour incubation of 0.1 μM paclitaxel.

[4] = molecular target: T1, HDAC1 (Homo sapiens, UniProt Q13547); test: HDAC1 activity, acetylated-AMC-labeled peptide substrate; format: biochemical
T1 construct: GST (C); host or cells: baculovirus expression system, Sf9 insect cells (SP9 [sic])
T1 sequence (Q13547 whole entry): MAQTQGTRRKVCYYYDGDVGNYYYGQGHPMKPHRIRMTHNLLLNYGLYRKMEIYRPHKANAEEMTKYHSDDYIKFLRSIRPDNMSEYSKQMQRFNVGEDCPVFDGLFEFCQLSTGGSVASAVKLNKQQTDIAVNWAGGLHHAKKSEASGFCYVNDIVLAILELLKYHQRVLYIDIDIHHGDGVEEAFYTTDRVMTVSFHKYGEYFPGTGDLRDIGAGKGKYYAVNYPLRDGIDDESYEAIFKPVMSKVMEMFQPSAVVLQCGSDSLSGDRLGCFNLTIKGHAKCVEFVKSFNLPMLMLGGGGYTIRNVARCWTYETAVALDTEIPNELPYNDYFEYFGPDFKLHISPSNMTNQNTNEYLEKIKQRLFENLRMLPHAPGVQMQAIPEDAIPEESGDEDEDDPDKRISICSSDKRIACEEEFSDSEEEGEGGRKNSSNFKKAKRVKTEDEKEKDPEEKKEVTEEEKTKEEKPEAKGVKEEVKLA
Method: (§2) The activities of HDAC 1 and 6 were measured by using an acetylated-AMC-labeled peptide substrate, a fluorogenic peptide from p53 residues 379-382 (RHIKKAc). The proteins involved in the assay are as the followings (1) Human HIDAC1 (Genflank Accession No. NM_004964): Full length with C-terminal GST tag, MW=79.9 kDa, expressed by baculovirus expression system in SP9 cells; and (2) Human HIDAC6 (Genflank Accession No. BC069243): Full length with N-terminal GST tag, MW=159 kDa, expressed by baculovirus expression system in Sf9 cells.

[5] = test system: IL-6; test: IL-6 in bronchoalveolar lavage fluid, bleomycin model; format: in vivo, mice; conditions: prevention model, 30 mg/kg oral, 21 days; FIG. 6
Method: (§3) The activities of compounds COMPOUND 2 and COMPOUND 33 in preventing and/or treating pulmonary fibrosis were examined using a bleomycin-induced pulmonary fibrosis model, a model that involves deactivated bleomycin hydrolase, elevated oxidative stress, and increased inflammatory cytokines. In the prevention model, mice were administered bleomycin intratracheally an hour in prior to the first oral administration of 30 mg/kg testing compounds. The treatment continued for 21 consecutive days, and mice were sacrificed to examine histological changes of lung tissues were analyzed by H&E staining to evaluate the degree of lung fibrosis.

[6] = molecular target: T2, HDAC6 (Homo sapiens, UniProt Q9UBN7); test: HDAC6 activity, acetylated-AMC-labeled peptide substrate; format: biochemical
T2 construct: GST (N); host or cells: baculovirus expression system, Sf9 insect cells
T2 sequence (Q9UBN7 1-1215): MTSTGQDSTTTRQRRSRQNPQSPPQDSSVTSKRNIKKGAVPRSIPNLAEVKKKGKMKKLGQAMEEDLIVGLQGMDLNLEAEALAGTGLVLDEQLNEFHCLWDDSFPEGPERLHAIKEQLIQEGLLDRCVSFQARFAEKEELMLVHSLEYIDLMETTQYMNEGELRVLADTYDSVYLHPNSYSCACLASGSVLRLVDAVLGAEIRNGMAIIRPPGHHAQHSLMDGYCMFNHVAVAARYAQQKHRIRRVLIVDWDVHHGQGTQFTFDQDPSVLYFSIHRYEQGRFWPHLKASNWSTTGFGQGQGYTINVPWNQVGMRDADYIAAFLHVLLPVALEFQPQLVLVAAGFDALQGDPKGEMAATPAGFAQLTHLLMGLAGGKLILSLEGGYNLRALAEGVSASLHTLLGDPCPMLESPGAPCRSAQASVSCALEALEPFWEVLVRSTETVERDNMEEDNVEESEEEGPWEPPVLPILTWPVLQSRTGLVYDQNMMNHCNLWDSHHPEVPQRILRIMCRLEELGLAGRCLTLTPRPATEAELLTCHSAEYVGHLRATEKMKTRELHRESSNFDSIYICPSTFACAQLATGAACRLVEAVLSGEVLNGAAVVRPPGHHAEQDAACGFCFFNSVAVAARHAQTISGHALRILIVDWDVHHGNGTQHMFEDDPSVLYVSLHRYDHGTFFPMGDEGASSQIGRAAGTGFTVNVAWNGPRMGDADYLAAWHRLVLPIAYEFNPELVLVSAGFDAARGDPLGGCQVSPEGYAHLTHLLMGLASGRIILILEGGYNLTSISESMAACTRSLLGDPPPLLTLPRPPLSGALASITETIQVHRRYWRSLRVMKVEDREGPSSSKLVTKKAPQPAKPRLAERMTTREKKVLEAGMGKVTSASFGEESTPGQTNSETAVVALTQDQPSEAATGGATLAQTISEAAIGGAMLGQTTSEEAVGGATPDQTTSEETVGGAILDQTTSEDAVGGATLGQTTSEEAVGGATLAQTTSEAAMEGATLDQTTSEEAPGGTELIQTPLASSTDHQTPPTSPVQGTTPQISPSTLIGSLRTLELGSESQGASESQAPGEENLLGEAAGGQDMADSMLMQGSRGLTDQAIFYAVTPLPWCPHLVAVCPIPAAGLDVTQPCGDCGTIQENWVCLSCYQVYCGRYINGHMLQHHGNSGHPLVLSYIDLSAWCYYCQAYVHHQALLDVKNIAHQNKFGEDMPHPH
Method: as §2

[7] = test system: dorsal root ganglion (DRG) cells; test: DRG neurite outgrowth after paclitaxel-induced damage; format: cell-based, C57BL/6J mice; conditions: 0.1 μM and 1 μM, 24 hours prior to 24-hour 0.1 μM paclitaxel; FIG. 1
Method: as §1
The neurite was stained by pIII-tubulin.

[8] = test system: bleomycin-induced pulmonary fibrosis; test: Bleomycin-induced pulmonary fibrosis model, lung histology (H&E); format: in vivo, mice
Method: as §3, with “fibrosis. Additionally, the HDAC6 inhibitors, COMPOUND 2 and COMPOUND 33, were tested for their effect in aiding animal recovery from lung injury and pulmonary fibrosis post injury.” for “fibrosis.”

[9] = test system: BioMAP Fibrosis panel (REMyoF, SAEMyoF, MyoF systems); test: BioMAP Fibrosis panel cytokine/biomarker profiles; format: cell-based
Method: The HDAC6 inhibitor compounds were tested in a commercially available platform, BioMAP, for the cytokine profiles in related to tissue injuries. The BioMAP Fibrosis panel included 3 systems stimulated to model TGFβ and TNFα driven myofibroblast differentiation during chronic inflammation and wound healing in different tissue settings. Fibrotic disease of the kidney associated with end-stage renal failure was captured in the REMyoF system consisting of a co-culture of renal proximal tubule epithelial cells and adult fibroblasts. Interstitial lung diseases, including pulmonary fibrotic diseases such as idiopathic pulmonary fibrosis (IPF), was modeled by co-culturing small airway epithelial cells and adult fibroblasts in the SAEMyoF system. Both co-culture systems modeled the paracrine interaction between myofibroblasts and the proximally located epithelial cells, while the impact on fibroblasts alone was interrogated using the monoculture MyoF system. A signature BioMAP profile that is reflective of the changes in protein biomarker readouts within an individual system was generated for each testing compounds. Biomarker readouts selected for therapeutic and biological relevance were predictive for disease outcomes or specific drug effects, and was validated using agents with known clinical efficacy. Each readout was measured quantitatively by immune-based methods that detect protein (e.g., ELISA).

[10] = Oral pharmacokinetics (Table II); set-up: AUC: concentration or dose not given beside the values; conditions: in vivo
[11] = test system: paclitaxel-induced peripheral neuropathy; test: Paclitaxel-induced peripheral neuropathy, Von Frey test; format: in vivo, Sprague-Dawley (SD) rats; conditions: for mean withdrawal force threshold: 15 mg/kg one hour prior to test, mean±SEM
Method: Male Sprague-Dawley (SD) rats, weighing 320±30 grams, were given paclitaxel intraperitoneally at the dose of 6 mg/kg for 5 consecutive days with a total cumulative dose of 30 mg/kg to induce chemotherapy-induced peripheral neuropathy.
Compound 2 or vehicle was administered orally once daily for 2 weeks during the weekdays (Days 8 to 12 and 15-19). Mechanical allodynia is assessed by the manual Von Frey test once per week. The animals are given 20 to 30 minutes to acclimatize prior to the testing. The paw is pressed with a series of 8 manual Von Frey monofilaments with logarithmically incremental stiffness [3.61 (0.4 g), 3.84 (0.6 g), 4.08 (1.0 g), 4.31 (2.0 g), 4.56 (4.0 g), 4.93 (8.0 g), 5.18 (15.0 g) and (26.0 g)]. The manual Von Frey monofilament was applied perpendicularly from underneath the mesh floor to the central plantar surface with sufficient force to cause a slight buckling against the paw, and held for approximately 6-8 seconds. A positive response was noted if the paw is sharply withdrawn; ambulation is considered an ambiguous response, and in such cases, the stimulus is reapplied. The 50% paw withdrawal threshold (PWT) to a static mechanical stimulus was assessed using Von Frey filament and up-and-down method.
Von Frey data were presented as mean±SEM (Standard Error of the Mean). Treatment groups were compared to the paclitaxel control using Student's T-test. A p value <0.05 is considered to represent a significant difference.

Row | Structure (SMILES) | neurite degeneration (neurite area and number of blebs ratio) [1] | mean withdrawal threshold (50% PWT) [2] | tubulin hyperacetylation [3] | IC50 [4] | IL-6 level in the BALF [5] | HDAC6 selectivity (A)/(B) ([6]; HDAC1 IC50 / HDAC6 IC50) | IC50 ([6]; read-out: HDAC6 IC50 (B)) | neurite outgrowth [7] | development of lung fibrosis ([8]; prevention model, 30 mg/kg oral, 21 consecutive days, FIG. 5) | recovery from lung injury and pulmonary fibrosis post injury ([8]; treatment post injury) | fibrosis-related matrix activities ([9]; BioMAP readouts) | inflammation-related activities ([9]; BioMAP readouts) | myofibroblast activation-related activities ([9]; BioMAP readouts) | tissue remodeling/wound healing activities ([9]; BioMAP readouts) | activities on cytokines contributing to fibrosis ([9]; compared with nintedanib) | Cmax [10] | AUC ([10]; unit inferred) | mean withdrawal force threshold ([11]; Day 14) | mean withdrawal force threshold ([11]; Day 21) | pain-relief after dosing was stopped ([11]; FIG. 7)
1 | O=C(CCCCCCNC(=O)c1cnc(N(c2ccccc2)c2ccccc2)nc1)NO [ACY-1215, reference compound] | significantly lesser degree of neurite degeneration | not ACY1215, Reverses Cisplatin-Induced Neuropathy |  |  |  |  |  |  |  |  |  |  |  |  |  |  |  |  |  | 
2 | CCc1nc2cc(F)c(/C=C/C(=O)NO)cc2c(=O)n1-c1ccccc1 [Compound 33, (E)-3-(2-ethyl-7-fluoro-4-oxo-3-phenyl-3,4-dihydroquinazolin-6-yl)-N-hydroxyacrylamide] |  |  | tubulin hyperacetylation | 4440 nM | suppressed IL-6 level in the BALF | 134 | 33 nM | significantly rescued the neurite outgrowth | markedly decreased the development of lung fibrosis | protective effect in pulmonary inflammatory response and pulmonary fibrosis | decreased Collagen III, MMP-9; increased Collagen IV; modulated MMP-1, Collagen I | decreased M-CSF, sIL-6, MCP-1; modulated IP-10, I-TAC | decreased αSMA, E-Cadherin, N-Cadherin | decreased EGFR, tPA, uPA; modulated sVEGF | marked activities in decreasing TNF-α, IL-1, IL-6, MMP-9, VEGF, and collagen I | 2720 ng/mL | 11000 ng·h/mL |  |  | 
3 | CC(C)C[C@H](CN)CC(=O)O [Pregabalin, reference compound] |  | increased withdrawal threshold |  |  |  |  |  |  |  |  |  |  |  |  |  |  |  | 24.1 ± 3.45 g | 26 ± 0 g | failed to show the efficacy
